Article PMC3192407, “Both Basic and Acidic Amino Acid Residues of IpTxa Are Involved in Triggering Substate of RyR1” (Journal of Biomedicine and Biotechnology, 2011)
Bridge positions count the residues as written; N and C are the ends. Peptide text beside a SMILES is read from it.

The compounds below were run against T1, rabbit skeletal RyR1 (native RyR1 in HSR) (Oryctolagus cuniculus, UniProt P11716) (assay: Planar lipid bilayer single-channel recording, native RyR1 in HSR). Conditions: native RyR1 in SR, toxin cis, 6-100 nM, -30 mV, [Ca^2+]free 10 μM, pH 7.2, Hill fit, means ± SE of 3–9 experiments; read-out: EC50 for Psubstate.
T1 construct: tested using native RyR1 in rabbit skeletal HSR; from tissue; host or cells: rabbit fast-twitch back and leg muscles (heavy SR vesicles)
T1 sequence (P11716 whole entry): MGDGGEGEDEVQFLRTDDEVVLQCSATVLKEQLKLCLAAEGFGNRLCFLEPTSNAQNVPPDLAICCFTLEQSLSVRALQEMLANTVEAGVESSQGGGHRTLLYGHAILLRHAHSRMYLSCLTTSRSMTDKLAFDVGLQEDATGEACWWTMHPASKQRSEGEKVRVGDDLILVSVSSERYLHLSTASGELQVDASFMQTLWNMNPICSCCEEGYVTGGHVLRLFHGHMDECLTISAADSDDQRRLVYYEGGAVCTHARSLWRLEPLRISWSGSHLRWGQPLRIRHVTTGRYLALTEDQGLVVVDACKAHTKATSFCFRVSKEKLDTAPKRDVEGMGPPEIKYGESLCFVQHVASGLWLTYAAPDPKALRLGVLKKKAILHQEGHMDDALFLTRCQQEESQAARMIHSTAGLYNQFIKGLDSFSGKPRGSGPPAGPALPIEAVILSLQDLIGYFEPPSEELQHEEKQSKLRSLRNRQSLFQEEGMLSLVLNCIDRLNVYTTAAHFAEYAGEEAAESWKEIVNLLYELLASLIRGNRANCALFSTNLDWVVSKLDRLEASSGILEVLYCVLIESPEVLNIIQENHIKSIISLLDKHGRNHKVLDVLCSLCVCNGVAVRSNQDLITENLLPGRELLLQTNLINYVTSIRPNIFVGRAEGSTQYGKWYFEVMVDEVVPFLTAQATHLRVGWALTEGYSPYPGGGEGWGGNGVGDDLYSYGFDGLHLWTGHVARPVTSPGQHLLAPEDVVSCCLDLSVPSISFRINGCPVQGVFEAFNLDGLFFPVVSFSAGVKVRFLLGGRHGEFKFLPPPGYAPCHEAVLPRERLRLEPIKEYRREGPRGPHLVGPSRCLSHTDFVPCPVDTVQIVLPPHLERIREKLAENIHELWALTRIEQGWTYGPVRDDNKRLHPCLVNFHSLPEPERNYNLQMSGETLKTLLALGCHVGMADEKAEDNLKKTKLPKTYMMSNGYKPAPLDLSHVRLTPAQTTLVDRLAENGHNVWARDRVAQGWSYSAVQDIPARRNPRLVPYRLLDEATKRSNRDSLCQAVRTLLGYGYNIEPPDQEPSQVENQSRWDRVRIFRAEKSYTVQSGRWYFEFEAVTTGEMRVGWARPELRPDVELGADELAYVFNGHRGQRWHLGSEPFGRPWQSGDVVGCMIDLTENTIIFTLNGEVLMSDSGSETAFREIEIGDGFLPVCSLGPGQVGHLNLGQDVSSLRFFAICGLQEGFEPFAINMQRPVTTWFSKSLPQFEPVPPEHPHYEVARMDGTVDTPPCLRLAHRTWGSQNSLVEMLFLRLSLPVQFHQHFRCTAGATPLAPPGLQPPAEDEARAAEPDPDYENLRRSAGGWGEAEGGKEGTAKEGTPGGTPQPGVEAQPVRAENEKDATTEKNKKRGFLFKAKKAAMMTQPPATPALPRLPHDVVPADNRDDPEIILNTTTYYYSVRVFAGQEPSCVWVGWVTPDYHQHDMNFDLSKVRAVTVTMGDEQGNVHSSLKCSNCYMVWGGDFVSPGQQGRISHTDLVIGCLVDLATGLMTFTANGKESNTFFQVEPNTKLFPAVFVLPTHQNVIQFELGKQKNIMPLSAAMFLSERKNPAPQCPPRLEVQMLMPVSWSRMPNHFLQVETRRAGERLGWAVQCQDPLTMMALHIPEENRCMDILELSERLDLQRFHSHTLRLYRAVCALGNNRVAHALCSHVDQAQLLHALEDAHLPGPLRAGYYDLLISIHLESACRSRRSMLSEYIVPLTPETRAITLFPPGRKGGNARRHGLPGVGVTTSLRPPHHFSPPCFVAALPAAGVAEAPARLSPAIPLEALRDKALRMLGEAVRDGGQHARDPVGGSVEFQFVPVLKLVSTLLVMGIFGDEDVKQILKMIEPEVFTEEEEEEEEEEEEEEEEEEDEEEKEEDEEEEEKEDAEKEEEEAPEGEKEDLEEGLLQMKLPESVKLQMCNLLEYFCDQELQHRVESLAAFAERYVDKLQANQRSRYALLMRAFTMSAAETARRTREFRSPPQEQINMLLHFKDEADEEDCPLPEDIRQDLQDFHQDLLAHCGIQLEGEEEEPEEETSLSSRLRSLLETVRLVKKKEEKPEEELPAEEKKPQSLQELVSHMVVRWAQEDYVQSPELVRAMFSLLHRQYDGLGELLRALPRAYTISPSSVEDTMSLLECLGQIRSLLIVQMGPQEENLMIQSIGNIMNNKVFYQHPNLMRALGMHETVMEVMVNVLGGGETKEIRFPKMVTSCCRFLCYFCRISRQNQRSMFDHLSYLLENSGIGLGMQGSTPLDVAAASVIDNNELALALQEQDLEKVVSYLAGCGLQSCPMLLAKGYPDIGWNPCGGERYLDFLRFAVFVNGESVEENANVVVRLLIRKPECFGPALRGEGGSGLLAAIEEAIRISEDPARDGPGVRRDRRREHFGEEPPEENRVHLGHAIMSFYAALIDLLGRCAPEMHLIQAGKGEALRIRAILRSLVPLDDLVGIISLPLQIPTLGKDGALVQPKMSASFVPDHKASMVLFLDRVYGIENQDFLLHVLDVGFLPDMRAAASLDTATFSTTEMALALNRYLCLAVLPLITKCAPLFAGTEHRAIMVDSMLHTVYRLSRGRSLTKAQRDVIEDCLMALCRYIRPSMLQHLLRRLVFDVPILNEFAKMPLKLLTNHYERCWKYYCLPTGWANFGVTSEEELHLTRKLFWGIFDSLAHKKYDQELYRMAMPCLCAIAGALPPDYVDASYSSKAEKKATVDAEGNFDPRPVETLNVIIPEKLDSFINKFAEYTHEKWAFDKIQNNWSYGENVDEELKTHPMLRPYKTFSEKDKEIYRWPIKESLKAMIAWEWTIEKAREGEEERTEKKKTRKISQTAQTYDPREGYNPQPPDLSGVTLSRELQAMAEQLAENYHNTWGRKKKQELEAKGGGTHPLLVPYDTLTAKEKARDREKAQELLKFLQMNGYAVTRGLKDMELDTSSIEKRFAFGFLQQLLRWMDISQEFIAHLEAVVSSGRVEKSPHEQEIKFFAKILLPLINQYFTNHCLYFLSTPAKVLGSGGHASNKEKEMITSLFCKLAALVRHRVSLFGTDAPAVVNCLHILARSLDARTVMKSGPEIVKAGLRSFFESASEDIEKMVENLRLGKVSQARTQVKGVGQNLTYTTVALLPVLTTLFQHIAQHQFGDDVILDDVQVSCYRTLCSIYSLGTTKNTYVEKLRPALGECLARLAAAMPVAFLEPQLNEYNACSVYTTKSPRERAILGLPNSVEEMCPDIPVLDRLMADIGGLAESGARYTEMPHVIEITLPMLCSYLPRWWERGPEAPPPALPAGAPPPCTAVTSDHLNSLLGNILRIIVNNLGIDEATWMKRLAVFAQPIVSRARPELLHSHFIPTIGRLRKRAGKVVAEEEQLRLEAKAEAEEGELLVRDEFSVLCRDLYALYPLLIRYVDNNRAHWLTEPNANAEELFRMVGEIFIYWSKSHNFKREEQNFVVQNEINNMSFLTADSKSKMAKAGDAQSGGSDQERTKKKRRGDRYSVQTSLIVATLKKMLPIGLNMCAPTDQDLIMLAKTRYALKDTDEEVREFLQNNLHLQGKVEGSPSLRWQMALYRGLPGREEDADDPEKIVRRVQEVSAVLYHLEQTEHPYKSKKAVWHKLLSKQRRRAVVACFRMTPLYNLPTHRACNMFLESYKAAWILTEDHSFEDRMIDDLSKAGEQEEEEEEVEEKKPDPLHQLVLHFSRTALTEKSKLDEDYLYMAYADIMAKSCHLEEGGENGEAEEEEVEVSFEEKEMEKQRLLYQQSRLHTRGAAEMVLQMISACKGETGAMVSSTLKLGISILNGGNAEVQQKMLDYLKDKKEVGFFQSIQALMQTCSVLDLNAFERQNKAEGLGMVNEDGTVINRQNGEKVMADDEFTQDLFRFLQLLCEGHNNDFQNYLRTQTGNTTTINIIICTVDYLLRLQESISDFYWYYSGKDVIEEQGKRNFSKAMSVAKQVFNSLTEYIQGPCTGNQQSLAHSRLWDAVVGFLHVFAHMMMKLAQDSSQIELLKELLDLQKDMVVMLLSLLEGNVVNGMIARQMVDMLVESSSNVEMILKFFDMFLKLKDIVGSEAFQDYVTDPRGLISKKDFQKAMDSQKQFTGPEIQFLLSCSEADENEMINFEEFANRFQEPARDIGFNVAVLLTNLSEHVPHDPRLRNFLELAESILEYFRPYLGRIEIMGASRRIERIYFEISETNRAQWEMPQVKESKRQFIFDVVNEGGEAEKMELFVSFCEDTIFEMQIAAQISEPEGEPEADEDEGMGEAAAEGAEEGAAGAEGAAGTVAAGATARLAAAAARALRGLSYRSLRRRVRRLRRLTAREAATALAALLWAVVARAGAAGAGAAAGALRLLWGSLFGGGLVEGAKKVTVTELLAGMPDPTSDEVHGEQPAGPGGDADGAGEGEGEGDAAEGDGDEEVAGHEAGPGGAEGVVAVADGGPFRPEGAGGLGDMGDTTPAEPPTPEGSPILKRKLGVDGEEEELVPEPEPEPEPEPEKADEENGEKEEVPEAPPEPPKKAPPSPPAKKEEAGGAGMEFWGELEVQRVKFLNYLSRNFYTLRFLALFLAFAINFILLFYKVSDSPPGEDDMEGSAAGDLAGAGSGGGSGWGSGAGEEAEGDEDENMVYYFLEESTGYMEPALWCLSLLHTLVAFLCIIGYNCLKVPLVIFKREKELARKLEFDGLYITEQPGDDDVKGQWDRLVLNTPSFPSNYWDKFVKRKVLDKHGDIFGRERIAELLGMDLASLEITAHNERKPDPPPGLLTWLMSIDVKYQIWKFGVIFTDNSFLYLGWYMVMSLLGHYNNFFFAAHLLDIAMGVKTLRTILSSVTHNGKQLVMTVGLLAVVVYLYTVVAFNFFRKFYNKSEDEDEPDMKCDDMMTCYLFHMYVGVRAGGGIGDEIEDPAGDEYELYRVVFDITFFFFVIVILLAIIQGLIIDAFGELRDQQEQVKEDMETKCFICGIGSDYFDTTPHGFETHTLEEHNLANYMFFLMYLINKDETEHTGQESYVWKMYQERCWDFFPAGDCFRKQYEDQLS
Format: biochemical
Protocol: A heavy fraction of fragmented SR vesicles (HSR) containing junctional SR was prepared from rabbit fast-twitch back and leg muscles as described previously.
Single-channel recordings of rabbit skeletal RyR1 incorporated into planar lipid bilayers were carried out as described previously. Lipid bilayers, consisting of brain tissue phosphatidylethanolamine and phosphatidylserine (1 : 1) in decane (20 mg/mL) were formed across a hole of approximately 200 μm diameter. Thinning of the bilayer was monitored by bilayer capacitance. The basic composition of the cis/trans solution consisted of 300 mM cesium methanesulfonate, 10 mM Tris/Hepes (pH 7.2), 2 mM EGTA, and 1.998 mM CaCl2 ([Ca^2+]free = 10 μM). [Ca^2+]free was calculated using the “Chelator” program (Theo Schoenmaker). Cs^+ was selected as the charge carrier to ensure precise control of free [Ca^2+], to increase the channel conductance, and to avoid any contribution from potassium channels present in the SR membrane. Chloride channels were inhibited by using the impermeant anion methanesulfonate. Incorporation of ion channels was carried out as described by Miller and Racker and confirmed by recording the characteristically high single-channel conductance of RyRs. The trans side was maintained at ground and the cis side was clamped at −30 mV relative to the ground. After addition of the IpTxa to the cis chamber, the single channel data were collected at −30 mV for 2–5 min. […] Recordings were filtered with an 8-pole low-pass Bessel filter at 1 kHz and digitalized through a Digidata 1200 series interface (Axon Instruments). Data acquisition and analysis were done with the Axon Instruments software, pClamp v7.0.
Data were analyzed using the Hill equation described previously:
(1) Psubstate=(Psubstate, max )/[1+(EC50/[IpTxa])^nH] orPo=(Po, max )/[1+(EC50/[IpTxa])^nH], where (Po, max ) is the Po observed at saturating concentrations of IpTxa, EC50 is the IpTxa concentration for which 50% of Po, max is obtained and nH is the Hill coefficient. Also, Psubstate, max is the Psubstate observed at saturating concentrations of IpTxa, EC50 is the IpTxa concentration for which 50% of Psubstate, max is obtained, and nH is the Hill coefficient. The probability of full open state of the channel (Po) was defined as the ratio of the time spent in the open state to the total time exclusive of time spent in the substate. The probability to obtain substate (Psubstate) was calculated as the time spent in the substate divided by a given total recording time. The durations of the substate were obtained by manual positioning of the cursors and constructing all point histograms. Mean duration of substate was measured by total substate time divided by total substate frequencies.
Results are given as means ± SE. Significant differences were analyzed using Student's t-test. Differences were considered to be significant when P < 0.05. The fitting of the data to the graphs were carried out using the software, Origin v7.
To examine how IpTxa modifies RyR1 activity, RyR1 in HSR incorporated in planar lipid bilayers was tested in the presence or absence of synthetic wild-type IpTxa. The chamber solutions for both cis (cytosolic) and trans (luminal) sides included 300 mM cesium methanesulfonate and 10 mM Tris-Hepes (pH 7.2). 10 μM free Ca^2+ was added to the cis side to activate the incorporated RyR1. After an addition of IpTxa to the cis chamber, the single channel gating properties were recorded at a holding potential of −30 mV for over 2 min at each toxin concentration. […] To examine the effects of IpTxa on full open state, we calculated the probability to obtain the full open state (Po) as the time spent in the open state divided by the total time exclusive of the time spent in the substate. The time for recorded Po was in the range of 30 s–2 min. […] The steady-state Po was 0.18 ± 0.02 at 10 μM Ca^2+. […]

Structure (SMILES)	EC50
CC(C)C[C@@H]1NC(=O)[C@H](Cc2c[nH]cn2)NC(=O)[C@@H]2CCCN2C(=O)[C@H](CC(C)C)NC(=O)[C@@H](NC(=O)[C@H](CC(=O)O)NC(=O)CN)CSSC[C@@H]2NC(=O)[C@@H]3CSSC[C@@H](C(=O)N[C@@H](CCCNC(=N)N)C(=O)O)NC(=O)[C@H](CCCNC(=N)N)NC(=O)[C@H](CCCCN)NC(=O)[C@H](C)NC(=O)[C@H](C)NC(=O)[C@H](CC(N)=O)NC(=O)[C@H]([C@@H](C)O)NC(=O)CNC(=O)[C@H](CCCNC(=N)N)NC(=O)[C@H](CCCNC(=N)N)NC(=O)[C@H](CCCCN)NC(=O)[C@H](CSSC[C@H](NC(=O)[C@H](CCCNC(=N)N)NC(=O)[C@H](CCCCN)NC1=O)C(=O)N[C@@H](CCCCN)C(=O)N[C@@H](C)C(=O)N[C@@H](CC(=O)O)C(=O)N[C@@H](CC(N)=O)C(=O)N[C@@H](CC(=O)O)C(=O)N3)NC(=O)[C@H](CCCCN)NC(=O)[C@H](CCCCN)NC(=O)CNC2=O [E29A] (H-GDCLPHLKRCKADNDCCGKKCKRRGTNAAKRCR-OH; disulfide 3-17, 10-21, 16-32)	6.07 ± 4.28 nM
CC(C)C[C@@H]1NC(=O)[C@H](Cc2c[nH]cn2)NC(=O)[C@@H]2CCCN2C(=O)[C@H](CC(C)C)NC(=O)[C@@H](NC(=O)[C@H](CC(=O)O)NC(=O)CN)CSSC[C@@H]2NC(=O)[C@@H]3CSSC[C@@H](C(=O)N[C@@H](CCCNC(=N)N)C(=O)O)NC(=O)[C@H](CCCNC(=N)N)NC(=O)[C@H](CCCCN)NC(=O)[C@H](CCC(=O)O)NC(=O)[C@H](C)NC(=O)[C@H](CC(N)=O)NC(=O)[C@H]([C@@H](C)O)NC(=O)CNC(=O)[C@H](CCCNC(=N)N)NC(=O)[C@H](CCCNC(=N)N)NC(=O)[C@H](CCCCN)NC(=O)[C@H](CSSC[C@H](NC(=O)[C@H](C)NC(=O)[C@H](CCCCN)NC1=O)C(=O)N[C@@H](CCCCN)C(=O)N[C@@H](C)C(=O)N[C@@H](CC(=O)O)C(=O)N[C@@H](CC(N)=O)C(=O)N[C@@H](CC(=O)O)C(=O)N3)NC(=O)[C@H](CCCCN)NC(=O)[C@H](CCCCN)NC(=O)CNC2=O [R9A] (H-GDCLPHLKACKADNDCCGKKCKRRGTNAEKRCR-OH; disulfide 3-17, 10-21, 16-32)	19.9 ± 3.16 nM
CC(C)C[C@@H]1NC(=O)[C@H](Cc2c[nH]cn2)NC(=O)[C@@H]2CCCN2C(=O)[C@H](CC(C)C)NC(=O)[C@@H](NC(=O)[C@H](CC(=O)O)NC(=O)CN)CSSC[C@@H]2NC(=O)[C@@H]3CSSC[C@@H](C(=O)N[C@@H](CCCNC(=N)N)C(=O)O)NC(=O)[C@H](CCCNC(=N)N)NC(=O)[C@H](CCCCN)NC(=O)[C@H](CCC(=O)O)NC(=O)[C@H](C)NC(=O)[C@H](CC(N)=O)NC(=O)[C@H]([C@@H](C)O)NC(=O)CNC(=O)[C@H](CCCNC(=N)N)NC(=O)[C@H](CCCNC(=N)N)NC(=O)[C@H](CCCCN)NC(=O)[C@H](CSSC[C@H](NC(=O)[C@H](CCCNC(=N)N)NC(=O)[C@H](CCCCN)NC1=O)C(=O)N[C@@H](CCCCN)C(=O)N[C@@H](C)C(=O)N[C@@H](CC(=O)O)C(=O)N[C@@H](CC(N)=O)C(=O)N[C@@H](CC(=O)O)C(=O)N3)NC(=O)[C@H](C)NC(=O)[C@H](CCCCN)NC(=O)CNC2=O [K20A] (H-GDCLPHLKRCKADNDCCGKACKRRGTNAEKRCR-OH; disulfide 3-17, 10-21, 16-32)	18.5 ± 8.17 nM
CC(C)C[C@@H]1NC(=O)[C@H](Cc2c[nH]cn2)NC(=O)[C@@H]2CCCN2C(=O)[C@H](CC(C)C)NC(=O)[C@@H](NC(=O)[C@H](CC(=O)O)NC(=O)CN)CSSC[C@@H]2NC(=O)[C@@H]3CSSC[C@@H](C(=O)N[C@@H](CCCNC(=N)N)C(=O)O)NC(=O)[C@H](CCCNC(=N)N)NC(=O)[C@H](CCCCN)NC(=O)[C@H](CCC(=O)O)NC(=O)[C@H](C)NC(=O)[C@H](CC(N)=O)NC(=O)[C@H]([C@@H](C)O)NC(=O)CNC(=O)[C@H](CCCNC(=N)N)NC(=O)[C@H](CCCNC(=N)N)NC(=O)[C@H](CCCCN)NC(=O)[C@H](CSSC[C@H](NC(=O)[C@H](CCCNC(=N)N)NC(=O)[C@H](CCCCN)NC1=O)C(=O)N[C@@H](CCCCN)C(=O)N[C@@H](C)C(=O)N[C@@H](CC(=O)O)C(=O)N[C@@H](CC(N)=O)C(=O)N[C@@H](CC(=O)O)C(=O)N3)NC(=O)[C@H](CCCCN)NC(=O)[C@H](C)NC(=O)CNC2=O [K19A] (H-GDCLPHLKRCKADNDCCGAKCKRRGTNAEKRCR-OH; disulfide 3-17, 10-21, 16-32)	21.8 ± 6.47 nM
CC(C)C[C@@H]1NC(=O)[C@H](Cc2c[nH]cn2)NC(=O)[C@@H]2CCCN2C(=O)[C@H](CC(C)C)NC(=O)[C@@H](NC(=O)[C@H](CC(=O)O)NC(=O)CN)CSSC[C@@H]2NC(=O)[C@@H]3CSSC[C@@H](C(=O)N[C@@H](CCCNC(=N)N)C(=O)O)NC(=O)[C@H](CCCNC(=N)N)NC(=O)[C@H](CCCCN)NC(=O)[C@H](CCC(=O)O)NC(=O)[C@H](C)NC(=O)[C@H](CC(N)=O)NC(=O)[C@H]([C@@H](C)O)NC(=O)CNC(=O)[C@H](CCCNC(=N)N)NC(=O)[C@H](CCCNC(=N)N)NC(=O)[C@H](CCCCN)NC(=O)[C@H](CSSC[C@H](NC(=O)[C@H](CCCNC(=N)N)NC(=O)[C@H](CCCCN)NC1=O)C(=O)N[C@@H](CCCCN)C(=O)N[C@@H](C)C(=O)N[C@@H](CC(=O)O)C(=O)N[C@@H](CC(N)=O)C(=O)N[C@@H](C)C(=O)N3)NC(=O)[C@H](CCCCN)NC(=O)[C@H](CCCCN)NC(=O)CNC2=O [D15A] (H-GDCLPHLKRCKADNACCGKKCKRRGTNAEKRCR-OH; disulfide 3-17, 10-21, 16-32)	21.5 ± 1.92 nM
CC(C)C[C@@H]1NC(=O)[C@H](Cc2c[nH]cn2)NC(=O)[C@@H]2CCCN2C(=O)[C@H](CC(C)C)NC(=O)[C@@H](NC(=O)[C@H](CC(=O)O)NC(=O)CN)CSSC[C@@H]2NC(=O)[C@@H]3CSSC[C@@H](C(=O)N[C@@H](CCCNC(=N)N)C(=O)O)NC(=O)[C@H](CCCNC(=N)N)NC(=O)[C@H](CCCCN)NC(=O)[C@H](CCC(=O)O)NC(=O)[C@H](C)NC(=O)[C@H](CC(N)=O)NC(=O)[C@H]([C@@H](C)O)NC(=O)CNC(=O)[C@H](CCCNC(=N)N)NC(=O)[C@H](CCCNC(=N)N)NC(=O)[C@H](CCCCN)NC(=O)[C@H](CSSC[C@H](NC(=O)[C@H](CCCNC(=N)N)NC(=O)[C@H](CCCCN)NC1=O)C(=O)N[C@@H](CCCCN)C(=O)N[C@@H](C)C(=O)N[C@@H](C)C(=O)N[C@@H](CC(N)=O)C(=O)N[C@@H](CC(=O)O)C(=O)N3)NC(=O)[C@H](CCCCN)NC(=O)[C@H](CCCCN)NC(=O)CNC2=O [D13A] (H-GDCLPHLKRCKAANDCCGKKCKRRGTNAEKRCR-OH; disulfide 3-17, 10-21, 16-32)	21.7 ± 7.92 nM
CC(C)C[C@@H]1NC(=O)[C@H](Cc2c[nH]cn2)NC(=O)[C@@H]2CCCN2C(=O)[C@H](CC(C)C)NC(=O)[C@@H](NC(=O)[C@H](CC(=O)O)NC(=O)CN)CSSC[C@@H]2NC(=O)[C@@H]3CSSC[C@@H](C(=O)N[C@@H](CCCNC(=N)N)C(=O)O)NC(=O)[C@H](CCCNC(=N)N)NC(=O)[C@H](CCCCN)NC(=O)[C@H](CCC(=O)O)NC(=O)[C@H](C)NC(=O)[C@H](CC(N)=O)NC(=O)[C@H]([C@@H](C)O)NC(=O)CNC(=O)[C@H](C)NC(=O)[C@H](CCCNC(=N)N)NC(=O)[C@H](CCCCN)NC(=O)[C@H](CSSC[C@H](NC(=O)[C@H](CCCNC(=N)N)NC(=O)[C@H](CCCCN)NC1=O)C(=O)N[C@@H](CCCCN)C(=O)N[C@@H](C)C(=O)N[C@@H](CC(=O)O)C(=O)N[C@@H](CC(N)=O)C(=O)N[C@@H](CC(=O)O)C(=O)N3)NC(=O)[C@H](CCCCN)NC(=O)[C@H](CCCCN)NC(=O)CNC2=O [R24A] (H-GDCLPHLKRCKADNDCCGKKCKRAGTNAEKRCR-OH; disulfide 3-17, 10-21, 16-32)	26 ± 7.01 nM
